Results published in US20190169181A1, “FUMAGILLOL COMPOUNDS AND METHODS OF MAKING AND USING SAME” (Zafgen, Inc., priority 2016, published 2019).
Where a name gives a salt, the structure may show the parent alone.

Key:
[1] = target: T1, recombinant human MetAP2 (Homo sapiens, UniProt P50579); assay: Recombinant human MetAP2 enzyme inhibition assay (MAS peptide / amino acid oxidase / Amplex Ultrared readout); assay type: biochemical; settings: Flag tagged human recombinant MetAP2, 25 minutes at 25° C.
T1 construct: Flag; made in house

[2] = test system: Diet Induced Obese (DIO) C57BL/6 mice; assay: 10 day DIO mouse model, weight loss vs. vehicle; assay type: in vivo; settings: 240 h; for inhibition in vivo at 0.3 mg/kg: 0.3 mpk sc once a day for 10 days; for inhibition in vivo at 1 mg/kg: 1.0 mpk sc once a day for 10 days
How it was run: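 Male DIO C57BL/6 mice on 60% fat diet, vehicle-acclimated 3 days, then given compound at 0.3 or 1.0 mg/kg SC (10% DMSO in water) once daily for 10 days. Body weight and food intake recorded daily; weight loss versus vehicle, with hematology and blood chemistry on Day 11.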

[3] = test system: rat DIO model (Sprague Dawley rats on 45% High Fat diet); assay: 11 day rat DIO model, weight loss vs. vehicle; assay type: in vivo; settings: for Rat @ 0.3 mpk sc (%) weight loss vs. vehicle: 0.3 mpk sc once a day for 11 days; for Rat @ 1.0 mpk sc (%) weight loss vs. vehicle: 1.0 mpk sc once a day for 11 days
Text: The objective of this study design is to investigate the efficacy of disclosed compounds in an 11 day rat DIO model used to screen compounds for pharmacologic efficacy on endpoints related to obesity and metabolism. Effects on body weight, food intake, hematology and blood chemistries were the primary readouts of this study design. Male Sprague Dawley rats, approximately 8 weeks of age, were ordered from a certified vendor and housed on irradiated corncob bedding in micro-isolator cages, on a 12-hour light-dark cycle (0700-1900) at 68-74° F. and 30-70% humidity. Rats were fed Research Diets D12451 (45% High Fat) and provided water ad libitum. Rats were received and housed in the facility for at least two or three weeks prior to start of test article administration. On Day −4 or −3, rats were randomized into study groups based on body weight and body weights were continued to be recorded daily for the duration of the study. Daily food intake was assessed starting on Study Day −2 by weighing the hopper including the food to avoid loss of food in transfer.
Compounds were formulated into a 100% DMSO stock (at 9 mg/mL) prior to the start, and further diluted into the target working concentration using the vehicle of 10% DMSO in water. Prior to test article administration, starting on Day −3 a dosing acclimation occurred with all animals receiving a subcutaneous injection of vehicle (10% DMSO) only for 3 days. Starting on Day 1, test compounds or vehicle were administered based on individual body weight, subcutaneously, once a day for 11 days. All animals were sacrificed on Day 11, approximately 2 hours following the final dosing on Day 11. After sacrifice, whole blood was collected and analyzed for hematology and blood chemistry parameters.
Compounds were tested for weight loss vs. vehicle at 0.3 and 1.0 mpk sc (mg per kg animal weight delivered subcutaneously), and the results are shown in Table 2 below.

T1 sequence (P50579 whole entry): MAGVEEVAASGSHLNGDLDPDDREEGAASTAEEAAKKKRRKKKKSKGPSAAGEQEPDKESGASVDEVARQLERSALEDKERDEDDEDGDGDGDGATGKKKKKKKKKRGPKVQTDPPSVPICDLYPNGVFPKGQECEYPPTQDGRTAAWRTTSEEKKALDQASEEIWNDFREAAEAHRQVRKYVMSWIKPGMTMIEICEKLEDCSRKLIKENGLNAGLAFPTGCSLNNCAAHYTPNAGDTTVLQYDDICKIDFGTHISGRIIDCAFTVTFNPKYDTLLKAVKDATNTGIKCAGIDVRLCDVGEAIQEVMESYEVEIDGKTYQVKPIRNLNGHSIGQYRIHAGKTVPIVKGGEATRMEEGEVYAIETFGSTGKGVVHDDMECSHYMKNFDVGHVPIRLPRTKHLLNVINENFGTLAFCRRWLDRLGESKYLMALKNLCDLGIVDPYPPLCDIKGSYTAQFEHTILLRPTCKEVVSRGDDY

SMILES | IC50 [1] | inhibition in vivo at 0.3 mg/kg [2] | Rat @ 0.3 mpk sc (%) weight loss vs. vehicle [3] | Rat @ 1.0 mpk sc (%) weight loss vs. vehicle [3] | inhibition in vivo at 1 mg/kg [2]
CO[C@@H]1[C@H](OC(=O)N[C@@H](Cc2noc(=O)[nH]2)C(C)C)CC[C@]2(CO2)[C@H]1[C@@]1(C)O[C@@H]1CC=C(C)C [Example 27, (3R,4S,5S,6R)-5-methoxy-4-((2R,3R)-2-methyl-3-(3-methylbut-2-enyl)oxiran-2-yl)-1-oxaspiro[2.5]octan-6-yl (S)-3-methyl-1-(5-oxo-4,5-dihydro-1,2,4-oxadiazol-3-yl)butan-2-ylcarbamate] | 50 to 500 nM |  | −0.8% | 1.9% | 5.4%
CO[C@@H]1[C@H](OC(=O)N[C@@H](C)Cc2noc(=O)[nH]2)CC[C@]2(CO2)[C@H]1[C@@]1(C)O[C@@H]1CC=C(C)C [Example 28, (3R,4S,5S,6R)-5-methoxy-4-((2R,3R)-2-methyl-3-(3-methylbut-2-en-1-yl)oxiran-2-yl)-1-oxaspiro[2.5]octan-6-yl ((S)-1-(5-oxo-4,5-dihydro-1,2,4-oxadiazol-3-yl)propan-2-yl)carbamate] | < 50 nM | -2.3% | −1.4% |  | 4.2%
CO[C@@H]1[C@H](OC(=O)N[C@H](Cc2nc(=O)o[nH]2)C(C)C)CC[C@]2(CO2)[C@H]1[C@@]1(C)O[C@@H]1CC=C(C)C [Example 30, (3R,4S,5S,6R)-5-methoxy-4-((2R,3R)-2-methyl-3-(3-methylbut-2-enyl)oxiran-2-yl)-1-oxaspiro[2.5]octan-6-yl (R)-3-methyl-1-(5-oxo-4,5-dihydro-1,2,4-oxadiazol-3-yl)butan-2-ylcarbamate] | 50 to 500 nM | 1.4% | 0.7% | −0.4% | 14.1%
CO[C@@H]1[C@H](OC(=O)NCC(C)(C)c2cn(C[C@H]3CCCN3C)cn2)CC[C@]2(CO2)[C@H]1[C@@]1(C)O[C@@H]1CC=C(C)C [Example 38, (3R,4S,5S,6R)-5-methoxy-4-((2R,3R)-2-methyl-3-(3-methylbut-2-en-1-yl)oxiran-2-yl)-1-oxaspiro[2.5]octan-6-yl (2-methyl-2-(1-(((R)-1-methylpyrrolidin-2-yl)methyl)-1H-imidazol-4-yl)propyl)carbamate] | 50 to 500 nM | 5% | −1.7% |  | 5.5%

The next lines start with results.

IC50 [1] | SMILES | inhibition in vivo at 0.3 mg/kg [2] | Rat @ 0.3 mpk sc (%) weight loss vs. vehicle [3] | Rat @ 1.0 mpk sc (%) weight loss vs. vehicle [3] | inhibition in vivo at 1 mg/kg [2]
50 to 500 nM | CO[C@@H]1[C@H](OC(=O)N[C@@H](c2cn(C[C@H]3CCN(C)C3)cn2)C(C)C)CC[C@]2(CO2)[C@H]1[C@@]1(C)O[C@@H]1CC=C(C)C [Example 12, (3R,4S,5S,6R)-5-methoxy-4-((2R,3R)-2-methyl-3-(3-methylbut-2-enyl)oxiran-2-yl)-1-oxaspiro[2.5]octan-6-yl (R)-2-methyl-1-(1-(((S)-1-methylpyrrolidin-3-yl)methyl)-1H-imidazol-4-yl)propylcarbamate formate] | 9.5% | 12.9% | 18.8% | 
50 to 500 nM | CO[C@@H]1[C@H](OC(=O)N[C@H](c2cn(C[C@@H]3CCN(C)C3)cn2)C(C)C)CC[C@]2(CO2)[C@H]1[C@@]1(C)O[C@@H]1CC=C(C)C [Example 13, (3R,4S,5S,6R)-5-methoxy-4-((2R,3R)-2-methyl-3-(3-methylbut-2-enyl)oxiran-2-yl)-1-oxaspiro[2.5]octan-6-yl (S)-2-methyl-1-(1-(((R)-1-methylpyrrolidin-3-yl)methyl)-1H-imidazol-4-yl)propylcarbamate] | 8.2% | 11.5% | 22% | 
< 50 nM | CO[C@@H]1[C@H](OC(=O)N[C@H](c2cn(C[C@H]3CCN(C)C3)cn2)C(C)C)CC[C@]2(CO2)[C@H]1[C@@]1(C)O[C@@H]1CC=C(C)C [Example 15, (3R,4S,5S,6R)-5-methoxy-4-((2R,3R)-2-methyl-3-(3-methylbut-2-en-1-yl)oxiran-2-yl)-1-oxaspiro[2.5]octan-6-yl ((S)-2-methyl-1-(1-(((S)-1-methylpyrrolidin-3-yl)methyl)-1H-imidazol-4-yl)propyl)carbamate] | 10.8% | 10.6% | 16.4% | 8.4%
50 to 500 nM | CO[C@@H]1[C@H](OC(=O)N[C@H](c2cn(C[C@H]3CCCN3C)cn2)C(C)C)CC[C@]2(CO2)[C@H]1[C@@]1(C)O[C@@H]1CC=C(C)C [Example 16, (3R,4S,5S,6R)-5-methoxy-4-((2R,3R)-2-methyl-3-(3-methylbut-2-enyl)oxiran-2-yl)-1-oxaspiro[2.5]octan-6-yl (S)-2-methyl-1-(1-(((R)-1-methylpyrrolidin-2-yl)methyl)-1H-imidazol-4-yl)propylcarbamate] | 6.6% | 2.8% |  | 
